The values that follow come from patent US20250134667A1, “BIOABSORBABLE AND PHOTOCURABLE COMPOSITION, BIOABSORBABLE GUIDED TISSUE REGENERATION COMPOSITION, AND GRAFTING METHOD USING SAME” (priority 2022, published 2025).

Series [1] deals with gingival tissue of a rabbit. The series is described as follows: Tissue penetration ability in animal tissue, rabbit. As to conditions: living rabbit. The series is classed as in vivo. How it is done: (§1) The amine group of the peptide having the amino acid of SEQ ID NO: 1 was labeled with fluorescence using Alexa Fluor™ 680 NHS Ester (Thermo Fisher, A20008). The fluorescent labeling method followed the method provided by the manufacturer. The fluorescently labeled peptide was dissolved in water for injection at a concentration of 250 mg/ml, and 10 μL was injected into the gingival sulcus of the premolars of an adult dog (beagle dog) and the anterior gingival sulcus of a rabbit. After 2 hours, to check the permeability of the peptide in the tissue, the animal was sacrificed, the gingival tissue was collected, and tissues were embedded using Tissue-Tek® O.C.T. Compound (Sakura Finetek, 4583). After sectioning the embedded tissue at 10 μm thickness, fluorescently labeled peptides were confirmed using a confocal scanning fluorescence microscope. The nuclei of tissue cells were stained using DAPI.

The subject of series [2] is Raw264.7 cells. Put plainly: Cell penetration ability at the cellular level (confocal microscopy). The series is classed as cell-based, mouse. As to conditions: 50, 100, 200 μM, 1 hour. How it is done:
The N-terminus of the peptide having the amino acid of SEQ ID NO: 1 prepared in Example 1 was fluorescently labeled with Rhodamine B (Tokyo chemical industry Co., LTD., A5102). Raw264.7 cells were distributed 3×10^4 each into a 4-well chamber and cultured in DMEM medium for 24 hours to stabilize the cells. After 24 hours, fluorescently labeled peptide was added to the medium at concentrations of 50, 100, and 200 μM. After 1 hour of peptide treatment, a degree of penetration of the peptide into cells was observed using a confocal scanning fluorescence microscope […]. Cell nuclei were stained using 4′,6-diamidino-2-phenylindole (DAPI, Thermo Fisher, D1306). DIC represents the case observed under a general microscope, Nuceli represents the nucleus of a cell, Peptide represents the degree of penetration of a peptide bound to rhodamine B, and MERGE represents an image that overlaps images of DIC, Nuclei, and the penetrated peptide.

Series [3] relates to pNFκB. Put plainly: Western blot of pNFkB in Raw264.7 cells. The series is classed as cell-based, mouse. As to conditions: only the peptide, no LPS. How it is done:
(§2) Raw264.7 cells were purchased from ATCC (American Type Culture Collection) and used in the experiment. Raw264.7 cells were cultured in a CO2 incubator at 37° C. supplied with 5% CO2 and 95% air using DMEM (Dulbecco's modified Eagle medium) medium supplemented with 10% FBS and 100 units/ml antibiotics (penicillin-streptomycin).
[…] After 8 hours, the treated cells were collected, protease inhibitor cocktail and phosphatase inhibitor cocktail were added to Radioimmunoprecipitation assay buffer (RIPA buffer solution, Thermo Fisher, 89900), and the cells were treated to lyse the cells. After centrifuging the cell lysate and collecting the supernatant, the concentration of the cell lysate was measured using a bicinchoninic acid assay (BCA assay, Thermo Fisher, 23227), and RIPA buffer solution was added thereto to prepare the cell lysate to a final concentration of 5 mg/mL. Then, it was mixed with a buffer solution including 1 M Tris-HCl (pH 6.8), 50% glycerol, and 10% SDS in a 4:1 ratio, and then sodium dodecyl sulfate-poly acrylamide gel electrophoresis (SDS-PAGE) was performed. […]

In series [4] the test system is gingival tissue of an adult dog. The series is described as follows: Tissue penetration ability in animal tissue, adult dog. The series is classed as in vivo, adult dog (beagle dog). On the procedure:
as §1

Series [5] concerns plkBa. Put plainly: Western blot of plkBa in Raw264.7 cells. The note with it: only the peptide, no LPS. The series is classed as cell-based, mouse. On the procedure: as §2
Raw264.7 cells were treated with 200 μM of the peptide having the amino acid sequence of SEQ ID NO: 1 for 30 minutes, and then treated with 1 μg/ml LPS (lipopolysaccharide, Merck, L3024). After 8 hours, the treated cells were collected, protease inhibitor cocktail and phosphatase inhibitor cocktail were added to Radioimmunoprecipitation assay buffer (RIPA buffer solution, Thermo Fisher, 89900), and the cells were treated to lyse the cells. After centrifuging the cell lysate and collecting the supernatant, the concentration of the cell lysate was measured using a bicinchoninic acid assay (BCA assay, Thermo Fisher, 23227), and RIPA buffer solution was added thereto to prepare the cell lysate to a final concentration of 5 mg/mL. Then, it was mixed with a buffer solution including 1 M Tris-HCl (pH 6.8), 50% glycerol, and 10% SDS in a 4:1 ratio, and then sodium dodecyl sulfate-poly acrylamide gel electrophoresis (SDS-PAGE) was performed. […]
For orientation: In western blotting, separated proteins are transferred to a membrane and probed.

Peptide text beside a SMILES is read from it.

`C[C@@H](O)[C@H](NC(=O)[C@H](CO)NC(=O)[C@H](CS)NC(=O)[C@H](CCCCN)NC(=O)CN)C(=O)N[C@@H](CCCNC(=N)N)C(=O)NCC(=O)N[C@@H](CCCNC(=N)N)C(=O)N[C@@H](CCCCN)C(=O)N[C@@H](CO)C(=O)N[C@@H](CO)C(=O)N[C@@H](CCCNC(=N)N)C(=O)N[C@@H](CCCNC(=N)N)C(=O)N[C@@H](CCCCN)C(=O)N[C@@H](CCCCN)C(N)=O` [SEQ ID NO: 1, GKCSTRGRKSSRRKK] (H-GKCSTRGRKSSRRKK-NH2; N-terminus and C-terminus assumed): the “penetration into gingival tissue (in words)” value in series [1] and in series [4] was “penetrated” each time. In addition, the “concentration dependence of intracellular fluorescence” value in series [2] is “as the concentration of peptide increased, the intensity of fluorescence also increased”. Moreover, the “expression of pNFκB, peptide only” value in series [3] was “no effect”. Besides, the “expression of plkBa, peptide only” value in series [5] was “no effect”.
